Here are results for one compound from US11083732B2, “Use of negative modulators of GABA receptors containing alpha5 subunits as fast acting antidepressants” (University of Maryland, Baltimore, priority 2014, dated 2021).

Entries after “also recorded” stand apart in the source; their conditions may differ.

Test [1] deals with rats subjected to chronic restraint stress. The test is described as follows: Social interaction test (SIT) after chronic restraint stress (CRS). Format: in vivo, rat. The conditions noted are these: 10 days CRS; L-655,708 0.7 mg/kg i.p.; 24 hrs post-injection; vs baseline. The source says:
MRK-016 rapidly reverses loss of sucrose preference and social interaction behaviors after chronic restraint stress (FIG. 9). […] This persisted for 7 days despite further stress exposure. and in the same animals after an additional week of CRS and 7 days after the injection of MRK-016.
Chronic restraint stress (CRS). Male Sprague Dawley rats (4-5 weeks-old; Harlan Laboratories) were placed in appropriately sized restraint tubes, highly restricting their movement for periods of four hours in a brightly lit lab, every day for ten days during the light phase of their diurnal cycle (Lim et al., 2012).
Social interaction test (SIT). As described previously (Berton et al., 2006), rats were placed in a plastic enclosure (82×82 cm) with a 5×5 grid of squares (16.4×16.4 cm) visible underneath the clear plastic flooring. A small translucent perforated plastic box (20×16 cm) was placed against the center of one wall of the arena. During the testing conditions white overhead fluorescent lighting was used to illuminate the arena. A video camera positioned 170 cm above the floor of the arena was used to track the movements of the rats during the experiment.
(§1) Each test consisted of a “target-absent” trial followed by a “target-present” trial. During testing, an individual test rat was placed in the center of the arena and, after 30s of adaptation, the rat's movements were recorded with the video camera for 2.5 minutes. […]
(§2) Results were quantified as the percentage of time spent in the “interaction zone” (the five grid squares immediately surrounding the plastic cage) as measured for both the “target-absent” and “target-present” trials. […]
Several hedonic behaviors in rodents are sensitive to chronic stress and are restored by chronic, but not acute, administration of SSRIs, providing one means to screen for potential antidepressant compounds. First, it was determined whether L-655,708 would rapidly (<24 hrs) restore normal hedonic behavior following chronic restraint stress (Watanabe et al., 1992; Lim et al., 2012), consistent with the rapid antidepressant-like actions of ketamine (Li et al., 2011). […]

For test [2], the target named is GABAARs containing the alpha5 subunit (Homo sapiens, UniProt P18507+P31644). The conditions noted are these: Atack et al., 2005; 2006; cited from earlier work.
The test system of the next test is ΔFosB. The test is described as follows: FosB and ΔFosB expression after injection. Format: in vivo, rat. The text has this:
D3. Nestler and colleagues have shown that induction of the transcription factor ΔFosB in D1R-expressing medium spiny neurons in the NAc in response to chronic stress is an important mediator of resilience and may play a role in the antidepressant actions of fluoxetine by changing gene expression and synaptic strength (Perrotti et al., 2004; Lobo et al., 2013; Grueter et al., 2013). It is considered whether alpha5 GABA-NAM injection also affects deltaFosB expression. Control and CRS-susceptible rats receive an injection of L-665, 708. […] Tissue punches are taken from the NAc, area CA1, EC, and PFC and subjected to Western blotting for quantification of deltaFosB levels. Sections are prepared from these same regions and stained for ΔFosB in order to count immunoreactive nuclei with stereological techniques (Vialou et al., 2010). Sections through the ventral striatum are co-stained with an antibody against the D1R, since the expression of ΔFosB in these cells may be particularly important for SSRI actions (Lobo et a/., 2013). Similar to fluoxetine, in specific embodiments in stressed and unstressed animals, alpha5 GABA-NAM affects ΔFosB expression in the NAc and other brain regions, consistent with initial studies (FIG. 5).

A further test deals with unstressed rats. In words: Sucrose preference and social interaction tests in unstressed rats. Format: in vivo, rat. To be noted: 24 hrs after injection. The procedure: Sucrose preference test (SPT). Rats were given a choice between two bottles containing tap water or a 1% sucrose solution (Rygula et al., 2006). Testing was conducted overnight (16 hours), including the full duration of their dark phase. Animals were first trained with both bottles while group-housed. For subsequent tests, including during the baseline period, animals were individually housed. Sucrose preference was calculated as amount of the sucrose solution consumed as a percentage of the total amount of liquid consumed.
Social interaction test (SIT). As described previously (Berton et al., 2006), rats were placed in a plastic enclosure (82×82 cm) with a 5×5 grid of squares (16.4×16.4 cm) visible underneath the clear plastic flooring. A small translucent perforated plastic box (20×16 cm) was placed against the center of one wall of the arena. […]
as §1, §2

In test [3] the test system is rats subjected to chronic unpredictable stress. In words: Social interaction test (SIT) after chronic unpredictable stress (CUS). Format: in vivo, rat. The procedure:
Chronic unpredictable stress (CUS). Male Sprague-Dawley rats (4-5 weeks-old; Harlan Laboratories) were randomly divided into control and CUS groups. Rats in the CUS group were individually housed. CUS animals were treated with two mild stressors every day for 5-6 weeks during their light phase (Willner et al., 1987). The stressors were randomly cycled to enhance unpredictability. The stressors were: forced swim, in which rats were placed in a basin containing cold water for 5 minutes; strobe lighting, in otherwise total darkness for 30 minutes; restraint, during which rats were put into appropriately sized restraint tubes for 30 minutes; exposure to white noise for 30 minutes; and food or water deprivation for 14 hours spanning the dark phase.
Social interaction test (SIT). […]
as §1, §2

The next test deals with forebrain binding sites. The conditions noted are these: 0.7 mg/kg i.p.; Atack et al., 2005; cited from earlier work.

Sequence of GABAARs containing the alpha5 subunit (P31644 32-462): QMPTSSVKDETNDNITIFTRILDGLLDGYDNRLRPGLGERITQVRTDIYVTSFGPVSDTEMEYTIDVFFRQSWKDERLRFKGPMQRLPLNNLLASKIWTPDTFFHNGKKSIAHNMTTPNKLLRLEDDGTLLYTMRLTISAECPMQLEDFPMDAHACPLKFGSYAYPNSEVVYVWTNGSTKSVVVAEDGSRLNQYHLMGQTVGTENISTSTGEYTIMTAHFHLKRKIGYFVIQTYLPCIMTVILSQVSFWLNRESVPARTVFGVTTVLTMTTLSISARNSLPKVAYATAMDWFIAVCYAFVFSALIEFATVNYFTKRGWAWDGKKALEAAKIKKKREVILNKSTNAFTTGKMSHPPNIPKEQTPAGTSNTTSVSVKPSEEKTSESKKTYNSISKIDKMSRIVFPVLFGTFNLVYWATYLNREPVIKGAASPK
Sequence of GABAARs containing the alpha5 subunit (P18507 40-475): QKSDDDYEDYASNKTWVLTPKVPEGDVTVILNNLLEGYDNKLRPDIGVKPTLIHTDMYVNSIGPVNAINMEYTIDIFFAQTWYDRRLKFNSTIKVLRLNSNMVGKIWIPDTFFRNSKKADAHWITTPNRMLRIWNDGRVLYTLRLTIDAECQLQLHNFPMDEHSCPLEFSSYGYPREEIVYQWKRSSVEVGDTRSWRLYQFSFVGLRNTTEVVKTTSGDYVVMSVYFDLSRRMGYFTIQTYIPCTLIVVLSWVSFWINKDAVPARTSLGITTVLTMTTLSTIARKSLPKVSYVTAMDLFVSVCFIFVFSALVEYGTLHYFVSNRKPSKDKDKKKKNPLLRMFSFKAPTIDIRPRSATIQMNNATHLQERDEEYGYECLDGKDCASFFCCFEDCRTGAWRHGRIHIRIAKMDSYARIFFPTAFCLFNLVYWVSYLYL
Sequence of GABAARs containing the alpha5 subunit (P28472 26-473 partner): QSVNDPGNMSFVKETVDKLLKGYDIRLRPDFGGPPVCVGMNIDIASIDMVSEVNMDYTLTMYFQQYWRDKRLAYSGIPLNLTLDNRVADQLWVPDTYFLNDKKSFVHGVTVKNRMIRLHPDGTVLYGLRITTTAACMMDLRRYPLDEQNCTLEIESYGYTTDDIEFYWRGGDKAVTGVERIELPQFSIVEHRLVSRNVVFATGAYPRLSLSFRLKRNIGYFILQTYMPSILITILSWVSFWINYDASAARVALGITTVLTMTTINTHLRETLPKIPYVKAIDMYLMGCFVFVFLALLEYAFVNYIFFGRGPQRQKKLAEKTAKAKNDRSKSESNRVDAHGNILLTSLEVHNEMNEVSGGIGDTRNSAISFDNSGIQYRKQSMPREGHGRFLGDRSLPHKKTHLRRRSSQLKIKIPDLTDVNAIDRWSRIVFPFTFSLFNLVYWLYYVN

Consider `CCOC(=O)c1ncn2c1[C@@H]1CCCN1C(=O)c1cc(OC)ccc1-2` [L-655,708, ethyl (13aS)-7-methoxy-9-oxo-11, 12,13,13 a-terahydro-9H-imidazo[1,5-a]pyrrolo[2,1-c] [1,4]benzodiazepine-1-carboxylate], for which the social interaction ratio entry in test [1] was “not significantly different than baseline”. Besides, in test [2], the “selectivity for GABAARs containing the alpha5 subunit” value is reported as 10-100 fold. Besides, the “expression of FosB and ΔFosB” value in the test on ΔFosB (24 hrs after injection) was “No changes were apparent”. In addition, the “expression of FosB and ΔFosB in the NAc” value in the test on ΔFosB (unstressed animals, one hour after injection) was “increase”. In addition, the social interaction result with unstressed rats is given as “no change”; in test [3] (CUS rats, single injection of L-655,708 0.7 mg/kg i.p. 24 hrs earlier) it was “restores the behavior; also recorded: reversed to levels that were not significantly different than pre-stress baseline”. Besides, the sucrose preference result with unstressed rats is listed as “no change”. The “number of CUS rats in which social interaction was reversed” value in test [3] (CUS 4 weeks plus one week, L-655,708 0.7 mg/kg i.p. 24 hrs earlier) is recorded as 14 of 18. In the test with forebrain binding sites, the “occupancy of forebrain binding sites” value is “about 70%”.
